Read-outs that look alike come from different tables or passages of the source. Numbered stars: 1 amine (or outer) side, 2 acyl side, 3 side chain; on linkers, the order of the positions; unused ones are H or OH. Bridge positions count the residues as written; N and C are the ends. Square brackets hold non-standard residues; d marks the D form. Peptide text beside a SMILES is read from it. * marks the point of attachment. Bip(4'-NHAc) = CC(=O)Nc1ccc(-c2ccc(C[C@H](N)C(=O)O)cc2)cc1; X20 = CC(NC[C@H](N[*:1])C(=O)[*:2])=C1C(=O)CC(C)(C)CC1=O; Phe(3-CF3) = N[C@@H](Cc1cccc(C(F)(F)F)c1)C(=O)O; Ala(morpholin-4-yl) = N[C@@H](CN1CCOCC1)C(=O)O; Phe(4-CONH2) = NC(=O)c1ccc(C[C@H](N)C(=O)O)cc1; Phe(4-COOH) = N[C@@H](Cc1ccc(C(=O)O)cc1)C(=O)O; X5 = CS(=O)(=O)NC(=O)C[C@H](N[*:1])C(=O)[*:2]; Bip = N[C@@H](Cc1ccc(-c2ccccc2)cc1)C(=O)O; Abu(3R-NH2) = C[C@@H](N)[C@H](N)C(=O)O; Phe(3-Me) = Cc1cccc(C[C@H](N)C(=O)O)c1; Phe(4-Me) = Cc1ccc(C[C@H](N)C(=O)O)cc1; Abu(3S-NH2) = C[C@H](N)[C@H](N)C(=O)O; hPhe = N[C@@H](CCc1ccccc1)C(=O)O; Cha = N[C@@H](CC1CCCCC1)C(=O)O; Carboxymethyl = O=C(O)C*; NMeA = CN[C@@H](C)C(=O)O; Orn = NCCC[C@H](N)C(=O)O; Dab = NCC[C@H](N)C(=O)O
Target: T1, Alexa fluor-647 labeled human PD-L1-Ig binding to Jurkat cell line over-expressing human PD-1 (Homo sapiens, UniProt Q15116)
T1 construct: expressed in transfected cells; host or cells: Jurkat
T1 sequence (Q15116 25-288): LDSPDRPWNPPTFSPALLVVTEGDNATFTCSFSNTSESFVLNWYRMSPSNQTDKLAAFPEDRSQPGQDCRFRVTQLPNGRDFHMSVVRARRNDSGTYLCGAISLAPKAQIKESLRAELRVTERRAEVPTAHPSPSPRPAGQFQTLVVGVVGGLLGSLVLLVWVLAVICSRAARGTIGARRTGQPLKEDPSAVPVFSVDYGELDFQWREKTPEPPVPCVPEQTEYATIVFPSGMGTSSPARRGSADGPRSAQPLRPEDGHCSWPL
Assay: Jurkat-PD-1 Cell Binding High-Content Screening Assay (CBA): Method 3 (Alexa fluor-647 labeled PD-L1-Ig)
Details: Jurkat-PD-1 cells, Alexa fluor-647 labeled PD-L1-Ig 177 nM
Method in brief: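 Readout by high-content imaging of PFA-fixed, Hoechst-stained cells after 1 h with 177 nM (final) Alexa fluor-647 PD-L1-Ig. Compound was added first to hPD-1 Jurkat cells in RPMI plus 10% FCS for 2 h at 37 °C.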

[1] = head μM, read-out: CBA Method 3 μM

Compound | IC50 [1] [µM] | IC50 (nM, read-out: CBA Method 3) [µM]
CC(NC[C@@H]1NC(=O)[C@H](Cc2ccc(C(=O)O)cc2)NC(=O)[C@H](CN2CCOCC2)NC(=O)CSC[C@@H](C(=O)N[C@@H](CCN)C(N)=O)NC(=O)[C@H](CCCN)NC(=O)[C@H](C(C)C)NC(=O)[C@H](CC2CCCCC2)NC(=O)[C@H](CCN)NC(=O)[C@@H](CC(C)C)NC(=O)[C@H](C)N(C)C(=O)[C@H](CCC(N)=O)NC(=O)[C@H](Cc2ccc(-c3ccccc3)cc2)NC(=O)[C@H](Cc2ccc(C(=O)O)cc2)NC(=O)[C@H](Cc2cccc(C(F)(F)F)c2)NC1=O)=C1C(=O)CC(C)(C)CC1=O [Example 5105] ({CH2CO}-[Ala(morpholin-4-yl)][Phe(4-COOH)][X20][Phe(3-CF3)][Phe(4-COOH)][Bip]Q[NMeA][dL][Dab][Cha]V[Orn]C[Dab]-NH2; thioether N-14) | 0.02 | –
CC(=O)Nc1ccc(-c2ccc(C[C@@H]3NC(=O)[C@H](Cc4cccc(C(F)(F)F)c4)NC(=O)[C@H](CC(=O)NS(C)(=O)=O)NC(=O)[C@H](Cc4ccc(C(=O)O)cc4)NC(=O)[C@H]([C@H](C)N)NC(=O)CSC[C@@H](C(=O)N[C@@H](CCN)C(N)=O)NC(=O)[C@H](CCC(N)=O)NC(=O)[C@H](C(C)C)NC(=O)[C@H](CC4CCCCC4)NC(=O)[C@H](CCN)NC(=O)[C@@H](CC(C)C)NC(=O)[C@H](C)N(C)C(=O)[C@H](Cc4ccc(C(N)=O)cc4)NC(=O)[C@H](Cc4ccc(-c5ccccc5)cc4)NC3=O)cc2)cc1 [Example 5099] ({CH2CO}-[Abu(3S-NH2)][Phe(4-COOH)][X5][Phe(3-CF3)][Bip(4'-NHAc)][Bip][Phe(4-CONH2)][NMeA][dL][Dab][Cha]VQC[Dab]-NH2; thioether N-14) | 0.65 | –
CC(C)C[C@H]1NC(=O)[C@H](C)N(C)C(=O)[C@H](CCC(N)=O)NC(=O)[C@H](Cc2ccc(-c3ccccc3)cc2)NC(=O)[C@H](Cc2ccc(OCC(=O)O)cc2)NC(=O)[C@H](Cc2cccc(C(F)(F)F)c2)NC(=O)[C@H](CC(=O)O)NC(=O)[C@H](CCc2ccccc2)NC(=O)[C@H](CN2CCOCC2)NC(=O)CSC[C@@H](C(=O)N[C@@H](CCN)C(N)=O)NC(=O)[C@H](CCCN)NC(=O)[C@H](C(C)C)NC(=O)[C@H](CC2CCCCC2)NC(=O)[C@H](CCN)NC1=O [Example 5264] ({CH2CO}-[Ala(morpholin-4-yl)][hPhe]D[Phe(3-CF3)]Y(Carboxymethyl)[Bip]Q[NMeA][dL][Dab][Cha]V[Orn]C[Dab]-NH2; thioether N-14) | 0.1 | –
Cc1ccc(C[C@@H]2NC(=O)CSC[C@@H](C(=O)N[C@@H](CCN)C(N)=O)NC(=O)[C@H](CCCN)NC(=O)[C@H](C(C)C)NC(=O)[C@H](CC3CCCCC3)NC(=O)[C@H](CCN)NC(=O)[C@@H](CC(C)C)NC(=O)[C@H](C)N(C)C(=O)[C@H](CCC(N)=O)NC(=O)[C@H](Cc3ccc(-c4ccccc4)cc3)NC(=O)[C@H](Cc3ccc(C(=O)O)cc3)NC(=O)[C@H](Cc3cccc(C)c3)NC(=O)[C@H](CC(=O)O)NC(=O)[C@H](Cc3ccc(OCC(=O)O)cc3)NC2=O)cc1 [Example 5289] ({CH2CO}-[Phe(4-Me)]Y(Carboxymethyl)D[Phe(3-Me)][Phe(4-COOH)][Bip]Q[NMeA][dL][Dab][Cha]V[Orn]C[Dab]-NH2; thioether N-14) | – | 0.0008
CC(C)C[C@H]1NC(=O)[C@H](C)N(C)C(=O)[C@H](CCC(N)=O)NC(=O)[C@H](Cc2ccc(-c3ccccc3)cc2)NC(=O)[C@H](Cc2ccc(OCC(=O)O)cc2)NC(=O)[C@H](Cc2cccc(C(F)(F)F)c2)NC(=O)[C@H](CC(=O)O)NC(=O)[C@H](CCC(N)=O)NC(=O)[C@H]([C@@H](C)N)NC(=O)CSC[C@@H](C(=O)N[C@@H](CCN)C(N)=O)NC(=O)[C@H](CCCN)NC(=O)[C@H](C(C)C)NC(=O)[C@H](CC2CCCCC2)NC(=O)[C@H](CCN)NC1=O [Example 5249] ({CH2CO}-[Abu(3R-NH2)]QD[Phe(3-CF3)]Y(Carboxymethyl)[Bip]Q[NMeA][dL][Dab][Cha]V[Orn]C[Dab]-NH2; thioether N-14) | – | 0.0019
